For 28 molecules, IC50 results are on record in patent publication US20240400555A1 (Initial Therapeutics, Inc., priority 2023, published 2024).

The test deals with MV-4-11 cells. Briefly: Cell Viability Assay in MV-4-11 Cells. Format: cell-based. The conditions noted are these: Homo sapiens, MV4-11, 72 h, MV-4-11 cells, 72 h, Cell-Titer Glo; read-out: IC50. In a few lines:
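MV-4-11 cells at 7,000/well in IMDM with 10% FBS, exposed to compound for 72 h. Viability by CellTiter-Glo luminescence, normalized to DMSO as 100%, fitted with a four-parameter curve.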
For the molecule `O=C(c1ccc(-n2nnc3cccnc32)cc1F)N(c1nccc2sc(-c3cscn3)cc12)[C@@H]1CCCNC1` [Example 416, 2-fluoro-N-[(3R)-3-piperidyl]-N-(2-thiazol-4-ylthieno[3,2-c]pyridin-4-yl)-4-(triazolo[4,5-b]pyridin-3-yl)benzamide], the IC50 (commonly the concentration needed to halve the response being measured) came out at 180 nM.
As for `O=C(c1ccc(-n2nnc3cccnc32)cc1F)N(c1nccc2sc(-c3nccs3)cc12)[C@@H]1CCCNC1` [Example 417, 2-fluoro-N-[(3R)-3-piperidyl]-N-(2-thiazol-2-ylthieno[3,2-c]pyridin-4-yl)-4-(triazolo[4,5-b]pyridin-3-yl)benzamide], the IC50 amounted to 390 nM.
Consider `O=C(c1ccc(-n2nnc3cccnc32)cc1F)N(c1nccc2sc(-c3ccn(CCO)n3)cc12)[C@@H]1CCCNC1` [Example 418, (R)-4-(3H-[1,2,3]triazolo[4,5-b]pyridin-3-yl)-2-fluoro-N-(2-(1-(2-hydroxyethyl)-1H-pyrazol-3-yl)thieno[3,2-c]pyridin-4-yl)-N-(piperidin-3-yl)benzamide], for which the IC50 amounted to 360 nM.
Then `CS(=O)(=O)c1cccc(-c2cc3c(N(C(=O)c4ccc(-n5nnc6cccnc65)cc4F)[C@@H]4CCCNC4)nccc3s2)c1` [Example 419, 2-fluoro-N-[2-(3-methylsulfonylphenyl)thieno[3,2-c]pyridin-4-yl]-N-[(3R)-3-piperidyl]-4-(triazolo[4,5-b]pyridin-3-yl)benzamide], with 200 nM; and `Nc1noc2ccc(-c3cc4c(N(C(=O)c5ccc(-n6nnc7cccnc76)cc5F)[C@@H]5CCCNC5)nccc4s3)cc12` [Example 420, N-[2-(3-amino-1,2-benzoxazol-5-yl)thieno[3,2-c]pyridin-4-yl]-2-fluoro-N-[(3R)-3-piperidyl]-4-(triazolo[4,5-b]pyridin-3-yl)benzamide], with 330 nM.
Regarding `Cc1cc(-c2cccnc2)cc2ccnc(N(C(=O)c3ccc(-n4nnc5cccnc54)cc3F)[C@@H]3CCCNC3)c12` [Example 421, (R)-4-(3H-[1,2,3]triazolo[4,5-b]pyridin-3-yl)-2-fluoro-N-(8-methyl-6-(pyridin-3-yl)isoquinolin-1-yl)-N-(piperidin-3-yl)benzamide], the IC50 turned out to be 16 nM.
Consider `Cc1cc(-c2cn[nH]c2)cc2ccnc(N(C(=O)c3ccc(-n4nnc5cccnc54)cc3F)[C@@H]3CCCNC3)c12` [Example 422, (R)-4-(3H-[1,2,3]triazolo[4,5-b]pyridin-3-yl)-2-fluoro-N-(8-methyl-6-(1H-pyrazol-4-yl)isoquinolin-1-yl)-N-(piperidin-3-yl)benzamide], for which the IC50 was 6.6 nM.
Take `O=C(c1ccc(-n2nnc3cccnc32)cc1F)N(c1nccc2sc(-c3cccc(CO)c3)cc12)[C@@H]1CCCNC1` [Example 424, 2-fluoro-N-[2-[3-(hydroxymethyl)phenyl]thieno[3,2-c]pyridin-4-yl]-N-[(3R)-3-piperidyl]-4-(triazolo[4,5-b]pyridin-3-yl)benzamide]: the IC50 turned out to be 110 nM.
For `N#Cc1ccc(-c2cc3c(N(C(=O)c4ccc(-n5nnc6cccnc65)cc4F)[C@@H]4CCCNC4)nccc3s2)s1` [Example 425, N-[2-(5-cyano-2-thienyl)thieno[3,2-c]pyridin-4-yl]-2-fluoro-N-[(3R)-3-piperidyl]-4-(triazolo[4,5-b]pyridin-3-yl)benzamide], the IC50 came to 230 nM.
`O=C(c1ccc(-n2nnc3cccnc32)cc1F)N(c1nccc2sc(-c3ccc(CO)s3)cc12)[C@@H]1CCCNC1` [Example 426, 2-fluoro-N-[2-[5-(hydroxymethyl)-2-thienyl]thieno [3,2-c]pyridin-4-yl]-N-[(3R)-3-piperidyl]-4-(triazolo [4,5-b]pyridin-3-yl) benzamide]: the IC50 was 160 nM.
On to `O=C(c1ccc(-n2nnc3cccnc32)cc1F)N(c1nccc2sc(-c3csc(CO)n3)cc12)[C@@H]1CCCNC1` [Example 427, 2-fluoro-N-[2-[2-(hydroxymethyl)thiazol-4-yl]thieno[3,2-c]pyridin-4-yl]-N-[(3R)-3-piperidyl]-4-(triazolo[4,5-b]pyridin-3-yl)benzamide], for which the IC50 stood at 210 nM.
For `O=C(c1ccc(-n2nnc3cccnc32)cc1F)N(c1nccc2sc(-c3ccccc3O)cc12)[C@@H]1CCCNC1` [Example 428, 2-fluoro-N-[2-(2-hydroxyphenyl)thieno[3,2-c]pyridin-4-yl]-N-[(3R)-3-piperidyl]-4-(triazolo[4,5-b]pyridin-3-yl)benzamide], the IC50 came to 250 nM.
For `COC(=O)c1nc(-c2cc3c(N(C(=O)c4ccc(-n5nnc6cccnc65)cc4F)[C@@H]4CCCNC4)nccc3s2)cs1` [Example 429, methyl 4-[4-[[2-fluoro-4-(triazolo[4,5-b]pyridin-3-yl)benzoyl]-[(3R)-3-piperidyl]amino]thieno[3,2-c]pyridin-2-yl]thiazole-2-carboxylate], the IC50 came out at 1000 nM.
In the case of `Cn1cc(/C=C/c2ccnc(N(C(=O)c3ccc(-n4nnc5cccnc54)cc3F)[C@@H]3CCCNC3)c2)cn1` [Example 430, 2-fluoro-N-[4-[(E)-2-(1-methylpyrazol-4-yl)vinyl]-2-pyridyl]-N-[(3R)-3-piperidyl]-4-(triazolo[4,5-b]pyridin-3-yl)benzamide], the IC50 stood at 650 nM.
Regarding `O=C(c1ccc(-n2nnc3cccnc32)cc1F)N(c1cc(/C=C/c2cccnc2)ccn1)[C@@H]1CCCNC1` [Example 431, 2-fluoro-N-[(3R)-3-piperidyl]-N-[4-[(E)-2-(3-pyridyl)vinyl]-2-pyridyl]-4-(triazolo[4,5-b]pyridin-3-yl)benzamide], the IC50 is 2300 nM.
`Cc1cccc2ccnc(N(C(=O)c3ccc(-c4nnc5n4CCCC5)cc3F)[C@@H]3CCCNC3)c12` [Example 432, (R)-2-fluoro-N-(8-methylisoquinolin-1-yl)-N-(piperidin-3-yl)-4-(5,6,7,8-tetrahydro-[1,2,4]triazolo[4,3-a]pyridin-3-yl)benzamide]: the IC50 came out at 400 nM.
As to `O=C(c1ccc(Nc2ncccn2)cc1F)N(c1nccc2sc(-c3ccncc3)cc12)[C@@H]1CCCNC1` [Example 433], the IC50 was 26 nM.
Take `O=C(c1ccc(-n2nnc3cccnc32)cc1F)N(c1nccc2sc(-c3ccc4ncnn4c3)cc12)[C@@H]1CCCNC1` [Example 434, (R)-4-(3H-[1,2,3]triazolo[4,5-b]pyridin-3-yl)-N-(2-([1,2,4]triazolo[1,5-a]pyridin-6-yl)thieno[3,2-c]pyridin-4-yl)-2-fluoro-N-(piperidin-3-yl)benzamide]: the IC50 was found to be 91 nM.
With `O=C(c1ccc(-n2nnc3cccnc32)cc1F)N(c1nccc2sc(-c3cnn(-c4ccccn4)c3)cc12)[C@@H]1CCCNC1` [Example 435, 2-fluoro-N-[(3R)-3-piperidyl]-N-[2-[1-(2-pyridyl)pyrazol-4-yl]thieno[3,2-c]pyridin-4-yl]-4-(triazolo[4,5-b]pyridin-3-yl)benzamide], the IC50 was determined as 300 nM.
As for `CCn1cc(-c2cc3c(N(C(=O)c4ccc(-n5nnc6cccnc65)cc4F)[C@@H]4CCCNC4)nccc3s2)cn1` [Example 436, N-[2-(1-ethylpyrazol-4-yl)thieno[3,2-c]pyridin-4-yl]-2-fluoro-N-[(3R)-3-piperidyl]-4-(triazolo[4,5-b]pyridin-3-yl)benzamide], the half-maximal inhibitory concentration (IC50) was determined as 270 nM.
Regarding `CC(C)n1cc(-c2cc3c(N(C(=O)c4ccc(-n5nnc6cccnc65)cc4F)[C@@H]4CCCNC4)nccc3s2)cn1` [Example 437, (R)-4-(3H-[1,2,3]triazolo[4,5-b]pyridin-3-yl)-2-fluoro-N-(2-(1-isopropyl-1H-pyrazol-4-yl)thieno[3,2-c]pyridin-4-yl)-N-(piperidin-3-yl)benzamide], the IC50 is 380 nM.
As to `Cn1ccc(-c2cc3c(N(C(=O)c4ccc(-n5nnc6cccnc65)cc4F)[C@@H]4CCCNC4)nccc3s2)n1` [Example 438, 2-fluoro-N-[2-(1-methylpyrazol-3-yl)thieno[3,2-c]pyridin-4-yl]-N-[(3R)-3-piperidyl]-4-(triazolo[4,5-b]pyridin-3-yl)benzamide], the IC50 is 220 nM.
In the case of `CC(C)n1nccc1-c1ccc2c(N(C(=O)c3ccc(-n4nnc5cccnc54)cc3F)[C@@H]3CCCNC3)nccc2c1` [Example 439, (R)-4-(3H-[1,2,3]triazolo[4,5-b]pyridin-3-yl)-2-fluoro-N-(6-(1-isopropyl-1H-pyrazol-5-yl)isoquinolin-1-yl)-N-(piperidin-3-yl)benzamide], the IC50 turned out to be 1200 nM.
As to `O=C(c1ccc(-n2nnc3cccnc32)cc1F)N(c1nccc2cc(-c3cc[nH]c(=O)c3)ccc12)[C@@H]1CCCNC1` [Example 440, (R)-4-(3H-[1,2,3]triazolo[4,5-b]pyridin-3-yl)-2-fluoro-N-(6-(2-oxo-1,2-dihydropyridin-4-yl)isoquinolin-1-yl)-N-(piperidin-3-yl)benzamide], the IC50 worked out at 290 nM.
Then `Cc1cccc2ccnc(N(C(=O)c3ccc(-c4cn(C)nn4)cc3F)[C@H]3CNCC[C@@H]3C)c12` [Example 441, 2-fluoro-N-(8-methyl-1-isoquinolyl)-N-[(3R, 4S)-4-methyl-3-piperidyl]-4-(1-methyltriazol-4-yl) benzamide], with 120 nM; and `NC(=O)/C=C/c1cc2c(N(C(=O)c3ccc(-n4nnc5cccnc54)cc3F)[C@@H]3CCCNC3)nccc2s1` [Example 442, N-[2-[(E)-3-amino-3-oxo-prop-1-enyl]thieno[3,2-c]pyridin-4-yl]-2-fluoro-N-[(3R)-3-piperidyl]-4-(triazolo[4,5-b]pyridin-3-yl)benzamide], with 1000 nM; and `Cc1ncc(-c2cc3c(N(C(=O)c4ccc(-n5nnc6cccnc65)cc4F)[C@@H]4CCCNC4)nccc3s2)s1` [Example 443, 2-fluoro-N-[2-(2-methylthiazol-5-yl)thieno[3,2-c]pyridin-4-yl]-N-[(3R)-3-piperidyl]-4-(triazolo[4,5-b]pyridin-3-yl)benzamide], with 300 nM.
As for `Cc1cc(Cl)cc2ccnc(N(C(=O)c3ccc(-c4cn(C)nn4)cc3F)[C@@H]3CCCNC3)c12` [Example 444, N-(6-chloro-8-methyl-1-isoquinolyl)-2-fluoro-4-(1-methyltriazol-4-yl)-N-[(3R)-3-piperidyl] benzamide], the IC50 stood at 6.9 nM.
